Results: patent US20230157952A1, “METHOD FOR IMPROVING THE STABILITY OF A PHARMACEUTICAL COMPOSITION COMPRISING A HIGH PENETRATION DRUG, AND THE PHARMACEUTICAL COMPOSITION OBTAINED THEREFROM” (Techfields Inc., priority 2020, published 2023)

Experiment: Effect of temperature (and pH) on the stability of the solution (purity)
Type: physicochemical
Settings: 7% solution in water

CCN(CC)CCOC(=O)Cc1c(C)n(C(=O)c2ccc(Cl)cc2)c2ccc(OC)cc12.Cl
Purity(%) at day 0 (pH 1.0, day 0): 98.1 ± 0.3%
Purity(%) at day 21 (5° C.) (pH 1.0, day 21, 5° C.): 92.3 ± 0.3%
Purity(%) at day 21 (25° C.) (pH 1.0, day 21, 25° C.): 69.0 ± 0.3%
Purity(%) at day 21 (40° C.) (pH 1.0, day 21, 40° C.): 15.3 ± 0.3%
Purity (%) at day 21 (60° C.) (pH 1.0, day 21, 60° C.): 0%
Purity(%) at day 0 (pH 2.0, day 0): 98.3 ± 0.4%
Purity(%) at day 21 (5° C.) (pH 2.0, day 21, 5° C.): 95.9 ± 0.3%
Purity(%) at day 21 (25° C.) (pH 2.0, day 21, 25° C.): 83.1 ± 0.3%
Purity(%) at day 21 (40° C.) (pH 2.0, day 21, 40° C.): 27.5 ± 0.3%
Purity (%) at day 21 (60° C.) (pH 2.0, day 21, 60° C.): 0%
Purity(%) at day 0 (pH 3.0, day 0): 98.5 ± 0.2%
Purity(%) at day 21 (5° C.) (pH 3.0, day 21, 5° C.): 97.3 ± 0.3%
Purity(%) at day 21 (25° C.) (pH 3.0, day 21, 25° C.): 94.5 ± 0.2%
Purity(%) at day 21 (40° C.) (pH 3.0, day 21, 40° C.): 49.3 ± 0.3%
Purity (%) at day 21 (60° C.) (pH 3.0, day 21, 60° C.): 0%
Purity(%) at day 0 (pH 3.7, day 0): 98.5 ± 0.2%
Purity(%) at day 21 (5° C.) (pH 3.7, day 21, 5° C.): 97.7 ± 0.2%
Purity(%) at day 21 (25° C.) (pH 3.7, day 21, 25° C.): 97.3 ± 0.3%
Purity(%) at day 21 (40° C.) (pH 3.7, day 21, 40° C.): 57.9 ± 0.2%
Purity (%) at day 21 (60° C.) (pH 3.7, day 21, 60° C.): 16.3 ± 0.5%
Purity(%) at day 0 (pH 4.0, day 0): 98.7 ± 0.1%
Purity(%) at day 21 (5° C.) (pH 4.0, day 21, 5° C.): 98.1 ± 0.3%
Purity(%) at day 21 (25° C.) (pH 4.0, day 21, 25° C.): 97.5 ± 0.2%
Purity(%) at day 21 (40° C.) (pH 4.0, day 21, 40° C.): 68.7 ± 0.3%
Purity (%) at day 21 (60° C.) (pH 4.0, day 21, 60° C.): 19.6 ± 0.3%
Purity(%) at day 0 (pH 4.3, day 0): 98.8 ± 0.2%
Purity(%) at day 21 (5° C.) (pH 4.3, day 21, 5° C.): 98.3 ± 0.3%
Purity(%) at day 21 (25° C.) (pH 4.3, day 21, 25° C.): 97.3 ± 0.3%
Purity(%) at day 21 (40° C.) (pH 4.3, day 21, 40° C.): 70.1 ± 0.3%
Purity (%) at day 21 (60° C.) (pH 4.3, day 21, 60° C.): 17.7 ± 0.2%
Purity(%) at day 0 (pH 4.6, day 0): 98.7 ± 0.1%
Purity(%) at day 21 (5° C.) (pH 4.6, day 21, 5° C.): 98.2 ± 0.2%
Purity(%) at day 21 (25° C.) (pH 4.6, day 21, 25° C.): 96.4 ± 0.2%
Purity(%) at day 21 (40° C.) (pH 4.6, day 21, 40° C.): 56.3 ± 0.2%
Purity (%) at day 21 (60° C.) (pH 4.6, day 21, 60° C.): 15.3 ± 0.3%
Purity(%) at day 0 (pH 5.0, day 0): 98.6 ± 0.3%
Purity(%) at day 21 (5° C.) (pH 5.0, day 21, 5° C.): 97.0 ± 0.2%
Purity(%) at day 21 (25° C.) (pH 5.0, day 21, 25° C.): 94.1 ± 0.3%
Purity(%) at day 21 (40° C.) (pH 5.0, day 21, 40° C.): 42.8 ± 0.3%
Purity (%) at day 21 (60° C.) (pH 5.0, day 21, 60° C.): 1.9 ± 0.2%
Purity(%) at day 0 (pH 6.0, day 0): 98.5 ± 0.4%
Purity(%) at day 21 (5° C.) (pH 6.0, day 21, 5° C.): 95.3 ± 0.3%
Purity(%) at day 21 (25° C.) (pH 6.0, day 21, 25° C.): 87.8 ± 0.2%
Purity(%) at day 21 (40° C.) (pH 6.0, day 21, 40° C.): 27.6 ± 0.2%
Purity (%) at day 21 (60° C.) (pH 6.0, day 21, 60° C.): 0%
Purity(%) at day 0 (pH 7.0, day 0): 98.4 ± 0.3%
Purity(%) at day 21 (5° C.) (pH 7.0, day 21, 5° C.): 90.2 ± 0.3%
Purity(%) at day 21 (25° C.) (pH 7.0, day 21, 25° C.): 59.9 ± 0.3%
Purity(%) at day 21 (40° C.) (pH 7.0, day 21, 40° C.): 11.4 ± 0.4%
Purity (%) at day 21 (60° C.) (pH 7.0, day 21, 60° C.): 0%
Purity(%) at day 0 (pH 8.0, day 0): 98.0 ± 0.5%
Purity(%) at day 21 (5° C.) (pH 8.0, day 21, 5° C.): 79.3 ± 0.4%
Purity(%) at day 21 (25° C.) (pH 8.0, day 21, 25° C.): 47.6 ± 0.3%
Purity(%) at day 21 (40° C.) (pH 8.0, day 21, 40° C.): 0%
Purity (%) at day 21 (60° C.) (pH 8.0, day 21, 60° C.): 0%
